From patent EP0350163A2, “Renin inhibitory peptides” (BEECHAM GROUP PLC, priority 1988, dated 1990)
Where a name gives a salt, the structure may show the parent alone.

Molecular target: T1, human renin (Homo sapiens, UniProt P00797)
T1 construct: from tissue; host or cells: human plasma from the blood of healthy volunteers
T1 sequence (P00797 67-406): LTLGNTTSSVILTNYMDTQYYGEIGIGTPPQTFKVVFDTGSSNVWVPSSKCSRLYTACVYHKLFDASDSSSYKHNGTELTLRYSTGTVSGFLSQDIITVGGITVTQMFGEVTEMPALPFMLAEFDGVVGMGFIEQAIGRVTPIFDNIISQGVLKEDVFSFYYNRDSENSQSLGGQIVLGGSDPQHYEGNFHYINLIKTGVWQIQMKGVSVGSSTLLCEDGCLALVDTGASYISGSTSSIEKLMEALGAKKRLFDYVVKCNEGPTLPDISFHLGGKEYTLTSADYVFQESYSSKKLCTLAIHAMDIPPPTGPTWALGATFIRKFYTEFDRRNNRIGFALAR
Assay: In vitro human renin inhibition (renin activity in human plasma, angiotensin I radioimmunoassay)
Assay type: biochemical
Conditions: human plasma from healthy volunteers; angiotensin I difference between 37° and 4° for 2 h; linear regression of at least three concentrations; read-out: IC₅₀
Procedure: Renin inhibitory activity was estimated as the percentage change in renin activity in human plasma in the presence and absence of compound. The source of plasma was blood taken from healthy volunteers. Renin activity was defined by the difference in angiotensin I levels between two halves of a sample, one incubated at 37^o and the other at 4^o for 2 h. Angiotensin I levels were measured using a ¹²⁵I- angiotensin I radioimmunoassay kit (NEN/DuPont, Stevenage). Results were calculated as the mean of at least two, duplicate determinations and IC₅₀ values were calculated by linear regression analysis of at least three concentrations of compound.

SMILES | IC50
COc1cccc2c1OCC2CC(=O)N[C@@H](Cc1ccccc1)C(=O)N[C@@H](CC(C)C)C(=O)N[C@@H](CC1CCCCC1)[C@@H](O)CC(=O)NCC(C)C (stereo partly drawn) [E 3, 4-(S)-((7-Methoxy-2,3-dihydrobenzofuran-3-yl)acetyl-(S)-phenylalanyl-(S)-leucyl)amino-5-cyclohexyl-3-(S)-hydroxypentanoic acid isobutylamide hemihydrate] | 50 nM
CC(C)CNC(=O)C[C@H](O)[C@H](CC1CCCCC1)NC(=O)[C@H](CC(C)C)NC(=O)[C@H](Cc1ccccc1)NC(=O)CC1COc2ccc([N+](=O)[O-])cc21 (stereo partly drawn) [E 5, 4-(S)-((5-Nitro-2,3-dihydrobenzofuran-3-yl)acetyl-(S)-phenylalanyl-(S)-leucyl)amino-5-cyclohexyl-3-(S)-hydroxypentanoic acid isobutylamide hemihydrate] | 60 nM
CC(C)CNC(=O)C[C@H](O)[C@H](CC1CCCCC1)NC(=O)[C@H](CC(C)C)NC(=O)[C@H](Cc1ccccc1)NC(=O)CC1COc2ccc(N)cc21 (stereo partly drawn) [E 6, 4-(S)-((5-Amino-2,3-dihydrobenzofuran-3-yl)acetyl-(S)-phenylalanyl-(S)-leucyl)amino-5-cyclohexyl-3-(S)-hydroxypentanoic acid isobutylamide trifluoroacetate hemihydrate] | 30 nM
CC(C)CNC(=O)C[C@H](O)[C@H](CC1CCCCC1)NC(=O)[C@H](CC(C)C)NC(=O)[C@H](Cc1ccccc1)NC(=O)CC1COc2ccc(NC(N)=O)cc21 (stereo partly drawn) [E 7, 4-(S)-((5-Ureido-2,3-dihydrobenzofuran-3-yl)acetyl-(S)-phenylalanyl-(S)-leucyl)amino-5-cyclohexyl-3-(S)-hydroxypentanoic acid isobutylamide dihydrate] | 50 nM
CNS(=O)(=O)c1ccc2c(c1)C(CC(=O)N[C@@H](Cc1ccccc1)C(=O)N[C@@H](CC(C)C)C(=O)N[C@@H](CC1CCCCC1)[C@@H](O)CC(=O)NCC(C)C)CO2 (stereo partly drawn) [E 9, 4 (S)-((5-(Methylaminosulphonyl)-2,3-dihydrobenzofuran-3-yl)acetyl-(S)-phenylalanyl-(S)-leucyl)amino-5-cyclohexyl-3-(S)-hydroxypentanoic acid isobutylamide] | 50 nM
CC(C)CNC(=O)C[C@H](O)[C@H](CC1CCCCC1)NC(=O)[C@H](CC(C)C)NC(=O)[C@H](Cc1ccccc1)NC(=O)CC1CS(=O)(=O)c2ccccc21 (stereo partly drawn) [Example E12, 4-(S)-((2,3-Dihydro-1,1-dioxobenzothiophene-3-yl)acetyl-(S)-phenylalanyl-(S)-leucyl)amino-5-cyclohexyl-3-(S)-hydroxypentanoic acid isobutylamide] | 10 nM
CC(C)CNC(=O)C[C@H](O)[C@H](CC1CCCCC1)NC(=O)[C@H](CC(C)C)NC(=O)[C@H](Cc1ccccc1)NC(=O)CC1COc2ccc(CN)cc21 (stereo partly drawn) [Example E20a, 4-(S)-((5-(Aminomethyl)-2,3-dihydrobenzofuran-3-yl)acetyl-(S)-phenylalanyl-(S)-leucyl)amino-5-cyclohexyl-3-(S)-hydroxypentanoic acid isobutylamide hemi(trichloromethanate)] | 30 nM
CC(C)CNC(=O)C[C@H](O)[C@H](CC1CCCCC1)NC(=O)[C@H](Cc1cnc[nH]1)NC(=O)[C@H](Cc1ccccc1)NC(=O)CC1COc2ccc(C(=O)OCc3ccccc3)cc21 (stereo partly drawn) [Example E23, 4-(S)-((5-Benzyloxycarbonyl)-2,3-dihydrobenzofuran-3-yl)acetyl-(S)-phenylalanyl-(S)-histidyl)amino-5-cyclohexyl-3-(S)-hydroxypentanoic acid isobutylamide hemihydrate] | 470 nM
CC(C)CNC(=O)C[C@H](O)[C@H](CC1CCCCC1)NC(=O)[C@H](CC(C)C)NC(=O)[C@H](Cc1ccccc1)NC(=O)CC1CS(=O)(=O)c2cc(N)ccc21 (stereo partly drawn) [Example E29, 4-(S)-((6-Amino-2,3-dihydro-1,1-dioxobenzothiophene-3-yl)acetyl-(S)-phenylalanyl-(S)-leucyl)amino-5-cyclohexyl-3-(S)-hydroxypentanoic acid isobutylamide dihydrate] | 10 nM
CC(C)CNC(=O)C[C@H](O)[C@H](CC1CCCCC1)NC(=O)[C@H](CC(C)C)NC(=O)[C@H](Cc1ccccc1)NC(=O)CC1CS(=O)(=O)c2cc(CN)ccc21 (stereo partly drawn) [Example E31a, 4-(S)-((6-Aminomethyl-2,3-dihydro-1,1-dioxobenzothiophene-3-yl)acetyl-(S)-phenylalanyl-(S)-leucyl)amino-5-cyclohexyl-3-(S)-hydroxypentanoic acid isobutylamide dihydrate] | 8 nM
CC(C)CNC(=O)C[C@H](O)[C@H](CC1CCCCC1)NC(=O)[C@H](CC(C)C)NC(=O)[C@H](Cc1ccccc1)NC(=O)CC1COc2ccc(CNCC(=O)O)cc21 (stereo partly drawn) [Example E36a, 4-(S)-((5-(Carboxymethylaminomethyl)-2,3-dihydrobenzofuran-3-yl)acetyl-(S)-phenylalanyl-(S)-leucyl)amino-5-cyclohexyl-3-(S)-hydroxvoentanoic acid isobutylamide] | 100 nM
CC(C)CNC(=O)C[C@H](O)[C@H](CC1CCCCC1)NC(=O)[C@H](Cc1c[nH]cn1)NC(=O)[C@H](Cc1ccccc1)NC(=O)CC1COc2ccc([N+](=O)[O-])cc21 (stereo partly drawn) [Example E39, 4-(S)-((5-Nitro-2,3-dihydrobenzofuran-3-yl)acetyl-(S)-phenylalanyl-(S)-histidyl)amino-5-cyclohexyl-3-(S)-hydroxypentanoic acid isobutylamide hydrate] | 40 nM
CC(C)CNC(=O)C[C@H](O)[C@H](CC1CCCCC1)NC(=O)[C@H](CC(C)C)NC(=O)[C@H](Cc1ccccc1)NC(=O)CC1COc2ccc(S(=O)(=O)CC(=O)OC(C)(C)C)cc21 (stereo partly drawn) [Example E43, 4-(S)-((5-(tert-Butoxycarbonylmethanesulphonyl)-2,3-dihydrobenzofuran-3-yl)acetyl)-(S)-phenylalanyl-(S)-leucyl)amino-5-cyclohexyl-3-(S)-hydroxypentanoic acid isobutylamide hemihydrate] | 8 nM
CC(C)CNC(=O)C[C@H](O)[C@H](CC1CCCCC1)NC(=O)[C@H](CC(C)C)NC(=O)[C@H](Cc1ccccc1)NC(=O)CC1CS(=O)(=O)c2ccc(C#N)cc21 (stereo partly drawn) [Example E45, 4-(S)-((5-Cyano-2,3-dihydro-1,1-dioxobenzothiophene-3-yl)acetyl-(S)-phenylalanyl-(S)-leucyl)amino-5-cyclohexyl-3-(S)-hydroxypentanoic acid isobutylamide] | 9 nM
CC(C)CNC(=O)C[C@H](O)[C@H](CC1CCCCC1)NC(=O)[C@H](CC(C)C)NC(=O)[C@H](Cc1ccccc1)NC(=O)CC1CS(=O)(=O)c2ccc(CN)cc21 (stereo partly drawn) [Example E50, 4-(S)-((5-Aminomethyl-2,3-dihydro-1,1-dioxobenzothiophene-3-yl)acetyl-(S)-phenylalanyl-(S)-leucyl)amino-5-cyclohexyl-3-(S)-hydroxypentanoic acid isobutylamide] | 10 nM
CC(C)CNC(=O)C[C@H](O)[C@H](CC1CCCCC1)NC(=O)[C@H](CC(C)C)NC(=O)[C@H](Cc1ccccc1)NC(=O)CC1COc2ccc(S(=O)(=O)CC(=O)O)cc21 (stereo partly drawn) [Example E56, 4-(S)-((5-(Carboxymethanesulphonyl)-2,3-dihydrobenzofuran-3-yl)acetyl-(S)-phenylalanyl-(S)-leucyl)amino-5-cyclohexyl-3-(S)-hydroxypentanoic acid isobutylamide, sodium salt] | 60 nM
CC(C)CNC(=O)C[C@H](O)[C@H](CC1CCCCC1)NC(=O)[C@H](Cc1cnc[nH]1)NC(=O)[C@H](Cc1ccccc1)NC(=O)CC1CS(=O)(=O)c2cc(CN)ccc21 (stereo partly drawn) [Example E60, 4-(S)-((6-Aminomethyl-2,3-dihydro-1,1-dioxobenzothiophene-3-yl)acetyl-(S)-phenylalanyl-(S)-histidyl)amino-5-cyclohexyl-3-(S)-hydroxypentanoic acid isobutylamide bis(trifluoroacetate) sesquihydrate] | 40 nM
